Measurements taken from patent US20230096528A1, “Pharmaceutical Composition for Treatment or Prevention of Multiple Inflammatory disorders” (priority 2019, published 2023).

Experiments:
[1] = system: leptin-deficient (ob/ob) mice; assay: Denatonium acetate on body weight in leptin-deficient (ob/ob) mice (Example 1); type: in vivo
Method: This example describes an in vivo study of denatonium acetate on body weight in leptin-deficient (ob/ob) mice. Adult leptin-deficient mice (homozygote, ob/ob mice) fed with high-fat diet. There was a vehicle control group (15 mice) that were treated with distilled water by gavage BID. […] Body weights and body weight changes were determined at days 1, 3, 7, 10, 14, 21, 24 and 28. Food intake was determined on days 3, 7, 10, 14, 17, 21, […] and 28. On day 28 blood samples were taken for cytokine analysis, HbA1c, HDL, LDL, insulin, and bile acids.

[2] = system: murine air pouch model of inflammation; assay: Murine air pouch model of inflammation, LPS induction (Example 2); type: in vivo, C57BL/6 mice
Method: This example provides the results of investigating DA to modulate immune response in a murine air pouch model of inflammation. […] What was measured was infiltrating cell counts with air pouch exudates, IL-6 levels in air pouch exudates by an ELISA assay (R&D Systems Cat. No. M6000B), and multiple cytokine analysis (Mouse 32Plex Kit MilliporeSigma Cat. No. MCYTMAG70PMX32BK).
Duarte et al., Current Protocols in Pharmacology, 5.6.1-5.6.8 Mar. 2012, describes “The subcutaneous air pouch is an in vivo model that can be used to study acute and chronic inflammation, the resolution of the inflammatory response, and the oxidative stress response. Injection of irritants into an air pouch in rats or mice induces an inflammatory response that can be quantified by the volume of exudate produced, the infiltration of cells, and the release of inflammatory mediators. The model presented in this unit has been extensively used to identify potential anti-inflammatory drugs.” It can be used to study localized inflammation without systemic effects. But in this case the drug was administered orally, by gavage BID.
Test administration was 5 ml/kg body weight BID dosing with 8 hour intervals. The air pouch was created in each test BL6 mouse by sc injection of 1.5 ml/mouse of sterile air on day 0 and 1.5 ml/mouse of sterile air on day 3. Compounds (or control distilled water) were administered BID on day −2. LPS (0.75 mg/animal in 1 ml endotoxin free PBS) was administered at hour 0 or one hour after dosing with test compounds. Plasma samples were collected at termination and exudates of the air pouches for all groups. Cell count analysis and IL-6 assays were conducted at the animal facility and plasma and exudate samples were sent out for cytokine analysis.

[3] = system: leptin-deficient (ob/ob) mice; assay: Body weight and biomarker study in leptin-deficient (ob/ob) mice, 56 days (Example 10); type: in vivo; settings: 50 mg/kg gavage BID
Method: Therefore, ob/ob mice are a predictive in vivo model for these indications. This example provides results of a study of DA plus another compound (CQL) on body weight in leptin-deficient (ob/ob) mice. Vehicle group (N=14) were treated with distilled water by gavage BID, and DA (N=14) at a dose of 50 mg/kg by gavage BID. The study period was for 56 days+2-3 days testing period afterward. Body weight change measured 3× per week, food intake was measure twice per week, metabolic biomarkers (blood glucose, blood insulin, blood HbA1c, HDL, LDL, triglyceride and bile acid) were measured at beginning and end of study. Cytokine analysis was measured at end on Day 56.

[4] = system: biomarkers (chemokines, CSFs, interleukins, IFNs); assay: Biomarkers compared across many studies (Table 2); type: in vivo; settings: PO 92.4 mg/kg DA BID
Method: The many examples provided herein show the effect of the denatonium salts on various in vivo and in vitro models of various disease indications. In addition, blood samples were taken from the tested (and control) animals and various biomarkers were measured and compared. FIGS. 70A-C show graphs comparing biomarkers across many studies. […] It should be noted that clusters of multiple biomarkers predict effectiveness for each disease indication and that grouping is shown in FIG. 71.

[5] = system: diet-induced (DIO) mice; assay: Body weight study in diet-induced (DIO) mice (Example 9); type: in vivo, C57BL/6NTac mice; settings: DA 92.4 mg/kg gavage BID, vs vehicle
[6] = system: healthy mouse; assay: Cytokine profile and routes of administration in healthy mouse (Example 6); settings: healthy mice
[7] = 23.1 mg/kg BID gavage, vs vehicle
[8] = 23.1 mg/kg BID gavage, vs vehicle, no statistically significant difference
[9] = 96.4 mg/kg BID gavage pre-treatment, LPS, vs vehicle
[10] = higher dose of DA, air pouch model, LPS
[11] = day 56, no significant difference

CC(=O)[O-].CC[N+](CC)(CC(=O)Nc1c(C)cccc1C)Cc1ccccc1 [DA, denatonium acetate]
Blood HDL level at day 28 [1, 7]: statistically significant decrease
Blood HbA1c levels at day 28 [1, 7]: no statistically significant difference
Blood LDL cholesterol levels at day 28 [1, 7]: no statistically significant difference
Blood bile acid levels at day 28 [1, 7]: no statistically significant difference
Blood insulin levels at day 28 [1, 7]: no statistically significant difference
Blood total cholesterol level (LDL plus HDL) at day 28 [1, 7]: almost significant decrease
Body weight change at day 28 [1, 7]: no statistically significant difference
Cumulative food consumption over 28 days [1, 7]: no statistically significant difference
Fasting blood glucose level at day 28 [1, 7]: no statistically significant difference
GM-CSF in blood at day 28 [1, 7]: significant decreases
IFNγ in blood at day 28 [1, 7]: significant decreases
IL-5 in blood at day 28 [1, 7]: significant decreases
IL-10 in blood at day 28 [1, 7]: significant decreases
IL-12 in blood at day 28 [1, 7]: significant decreases
KC/CXCL1 in blood at day 28 [1, 7]: significant decreases
M-CSF in blood at day 28 [1, 7]: significant decreases
Change in granulocyte number, pre-dose to day 28 [1, 8]: trend of increasing change
Change in lymphocyte and white blood cell numbers and percentage, pre-dose to day 28 [1, 8]: trend of increasing change
Change in monocyte number and percentage, pre-dose to day 28 [1, 8]: trend of increasing change
Average daily individual food intake ([1]; 28 days, DA vs vehicle): no difference
Body weight after treatment for 28 days ([1]; compared to vehicle-treated controls): noticeable body weight decrease
IL-6 levels in air pouch exudates [2, 9]: significantly lower
Infiltrating cell count in air pouch exudates [2, 9]: significantly lower
IL-1b cytokine level [2, 10]: significant reduction
IL-10 cytokine level [2, 10]: significant reduction
IL-17 cytokine level [2, 10]: significant reduction
TNF-1a cytokine level [2, 10]: significant reduction
Infiltrating cell counts in air pouch exudates following LPS induction ([2]; pre-treatment by gavage BID, in a dose-dependent manner): decreased
Body weight ([3]; 56 days): no significant effect
Daily food consumption ([3]; 56 days): no significant effect
Serum HBA1c levels ([3]; 56 days): no significant effect
Serum HDL levels ([3]; 56 days): no significant effects
Serum glucose levels ([3]; 56 days): significantly decreased
Serum insulin levels ([3]; 56 days): no significant effect
Serum LDL levels ([3]; 56 days, vs vehicle): significantly lowered
Serum bile acids levels ([3]; 56 days, vs vehicle): significantly increased
Serum triglyceride levels ([3]; 56 days, vs vehicle): significantly lowered
IL-1β level decreased by, compared to vehicle group [3, 11]: 19.1%
IL-6 level decreased by, compared to vehicle group [3, 11]: 61.4%
MCP-1 level decreased by, compared to vehicle group [3, 11]: 20.9%
RANTES level decreased by, compared to vehicle group [3, 11]: 1.7%
Eotaxin: Decreased Percentage Compared to Vehicle [4]: −18.6%
G-CSF: Decreased Percentage Compared to Vehicle [4]: −37.5%
GM-CSF: Decreased Percentage Compared to Vehicle [4]: −2.3%
IFN-γ: Decreased Percentage Compared to Vehicle [4]: −37.3%
IL-1α: Decreased Percentage Compared to Vehicle [4]: −18.2%
IL-1β: Decreased Percentage Compared to Vehicle [4]: −12.0%
IL-3: Decreased Percentage Compared to Vehicle [4]: −74.5%
IL-5: Decreased Percentage Compared to Vehicle [4]: −29.1%
IL-6: Decreased Percentage Compared to Vehicle [4]: −34.2%
IL-10: Decreased Percentage Compared to Vehicle [4]: −92.5%
IL-12 (p70): Decreased Percentage Compared to Vehicle [4]: −28.0%
IL-17: Decreased Percentage Compared to Vehicle [4]: −21.2%
KC: Decreased Percentage Compared to Vehicle [4]: −21.6%
LIX: Decreased Percentage Compared to Vehicle [4]: −7.3%
MCP-1: Decreased Percentage Compared to Vehicle [4]: −24.2%
MIG: Decreased Percentage Compared to Vehicle [4]: −13.2%
MIP-1α: Decreased Percentage Compared to Vehicle [4]: −3.4%
MIP-1β: Decreased Percentage Compared to Vehicle [4]: −10.2%
MIP-2: Decreased Percentage Compared to Vehicle [4]: −76.3%
RANTES: Decreased Percentage Compared to Vehicle [4]: −20.6%
Daily food intake at Day 14 [5]: significantly reduced
Biomarker (cytokine) effects after iv dosing ([6]; iv bolus QD, 1 mg/kg and 3 mg/kg (either iv dose)): no biomarker (cytokine) effects
Side effects by route of administration ([6]; seen only with iv administration (1 and 3 mg/kg QD)): toxic side effects
